According to patent US20180153995A1, “USE OF ANTIMICROBIAL POLYMERS FOR RE-SENSITIZATION OF MICROORGANISMS UPON EMERGENCE OF RESISTANCE TO ANTI-MICROBIAL AGENTS” (Technion Research & Development Foundation Limited, priority 2008, published 2018):
Several values for one entry are separate records, joined by “and”; a condition that tells them apart may be missing. Identical values can stand only once. Like-named read-outs stand apart in the source and are kept apart here.

Assays:
P. mirabilis 1285 [1] = assay type: cell-based, Proteus mirabilis
MRSA 15852 = assay type: cell-based, Staphylococcus aureus; conditions: S. aureus 15852
Experimental: The fractionary inhibitory (FIC) concentration index for combinations of two antimicrobial agents was calculated as follows: FIC index=FICA+FICB=A/MICA+B/MICB where A and B are the MIC values of agent A and agent B in the combination, MICA and MICB are the MICs of agent A and agent B alone, and FICA and FICB are the FICs of agent A and agent B.
The FIC indexes were interpreted as follows: less than 0.5 indicates a clear re-sensitizing effect; from 0.5 to 4 indicates a marginal or null re-sensitizing effect; and over 4 indicates antagonism.

S. aureus 43300 = experiment: Antibiotic MIC by microdilution with or without sub-MIC polymer; assay type: cell-based, Staphylococcus aureus
P. mirabilis 1285 [2] = assay type: cell-based, Proteus mirabilis; conditions: no polymer (None), Table 12
Experimental: (§1) MICs were determined by microdilution susceptibility testing in 96-well plates (by Nunc) using inocula of 10^5 bacteria per ml. Cell populations were evaluated by optical density measurements at 620 nm and were calibrated against a set of standards. Hundred (100) μl of a bacterial suspension were added to 100 μl of culture medium (control) or to 100 μl of culture medium containing various polymer concentrations in 2-fold serial dilutions. Inhibition of proliferation was determined by optical density measurements at 620 nm after an incubation period of 24 hours at 37° C.
(§2) 100 μl of a bacterial suspension were added to 100 μl of culture medium (control) or to 100 μl of culture medium containing various antibiotic and C14(9-ene)KKNC12KNH2 (SEQ ID NO: 5) concentrations in 2-fold serial dilutions. Inhibition of proliferation was determined by optical density measurements at 620 nm after an incubation period of 24 hours at 37° C.

S. aureus 15877 = experiment: Antibiotic MIC by microdilution with or without sub-MIC polymer; assay type: cell-based, Staphylococcus aureus
Experimental: MICs were determined by microdilution susceptibility testing in 96-well plates (Nunc) using inocula of 10^5 bacteria per ml. One hundred (100) μl of a bacterial suspension were added to 100 μl of culture medium (control) or to 100 μl of culture medium containing various antibiotic and C12(5-ene)KKNC12KNH2 (SEQ ID NO: 2) concentrations in 2-fold serial dilutions. Inhibition of proliferation was determined by optical density measurements at 620 nm after an incubation period of 24 hours at 37° C.

E. coli AG100/ks = experiment: Antibiotic MIC with or without sub-MIC polymer (Tables 20, 21); assay type: cell-based, Escherichia coli
P. aeruginosa 8732 = experiment: Antibiotic MIC by microdilution with or without sub-MIC polymer; assay type: cell-based, Pseudomonas aeruginosa
Experimental: as §1
Inhibition of proliferation was determined by optical density measurements at 620 nm after an incubation period of 24 hours at 37° C.

E. coli AG100 = experiment: Antibiotic MIC with or without sub-MIC polymer (Tables 20, 21); assay type: cell-based, Escherichia coli
E. coli 14384 = experiment: Antibiotic MIC by microdilution with or without sub-MIC polymer; assay type: cell-based, Escherichia coli
Experimental: as §1, §2

[3] = +¼ MIC (1.6 μM) C12K(KNC12K)2NH2
[4] = +⅓ MIC (2.1 μM) C12K(KNC12K)2NH2
[5] = +¼ MIC (1.6 μM) C12(5-ene)KKNC12KNH2
[6] = +½ MIC (3.12 μM) C12(5-ene)KKNC12KNH2
[7] = +⅓ MIC (2.1 μM) C12(5-ene)KKNC12KNH2

CCN1CCN(C(=O)N[C@@H](C(=O)N[C@@H]2C(=O)N3[C@@H]2SC(C)(C)[C@@H]3C(=O)O)c2ccccc2)C(=O)C1=O [Piperacillin, piperacillin]
Antibiotic MIC (P. mirabilis 1285 [1]; [3]): 512 mg/L
Antibiotic MIC (P. mirabilis 1285 [1]; +½ MIC (3.12 μM) C12K(KNC12K)2NH2): 512 mg/L
Antibiotic MIC (P. mirabilis 1285 [1]; [4]): 512 mg/L
Antibiotic MIC (MRSA 15852; [5]): 128 mg/L
Antibiotic MIC (MRSA 15852; +¼ MIC (1.6 μM) C12KKNC12KNH2): 256 mg/L
Antibiotic MIC (MRSA 15852; [6]): 128 mg/L
Antibiotic MIC (MRSA 15852; +½ MIC (3.12 μM) C12KKNC12KNH2): 256 mg/L
Antibiotic MIC (MRSA 15852; [7]): 128 mg/L
Antibiotic MIC (MRSA 15852; +⅓ MIC (2.1 μM) C12KKNC12KNH2): 256 mg/L
Antibiotic MIC (MRSA 15852; no polymer (None), Table 8): 128 mg/L
Antibiotic MIC (MRSA 15852; no polymer (None), Table 11): 256 mg/L
Antibiotic MIC (S. aureus 43300; [5]): 4 mg/L
Antibiotic MIC (S. aureus 43300; [3]): 32 mg/L
Antibiotic MIC (S. aureus 43300; +¼ MIC (1.6 μM) C12KKNC12KNH2): 32 mg/L
Antibiotic MIC (S. aureus 43300; +¼ MIC (1.6 μM) C16(9-ene)KKNC12KNH2): 4 mg/L
Antibiotic MIC (S. aureus 43300; +½ MIC (3.12 μM) C12KKNC12KNH2): 8 mg/L
Antibiotic MIC (S. aureus 43300; +½ MIC (3.12 μM) C16(9-ene)KKNC12KNH2): 2 mg/L
Antibiotic MIC (S. aureus 43300; [7]): 4 mg/L
Antibiotic MIC (S. aureus 43300; [4]): 32 mg/L
Antibiotic MIC (S. aureus 43300; +⅓ MIC (2.1 μM) C12KKNC12KNH2): 16 mg/L
Antibiotic MIC (S. aureus 43300; +⅓ MIC (2.1 μM) C16(9-ene)KKNC12KNH2): 4 mg/L
Antibiotic MIC (P. mirabilis 1285 [2]): 512 mg/L
Antibiotic MIC (S. aureus 15877; [5]): 16 to 32 mg/L
Antibiotic MIC (S. aureus 15877; [6]): 8 to 16 mg/L
Antibiotic MIC (S. aureus 15877; [7]): 16 to 32 mg/L
Antibiotic MIC (S. aureus 15877; no polymer (None), Table 8): 16 to 32 mg/L
Antibiotic MIC, None (E. coli AG100/ks; antibiotic alone (Table 20)): >512 mg/L
Antibiotic MIC, None (E. coli AG100/ks; antibiotic alone (Table 21)): >512 mg/L
Antibiotic MIC in presence of C12K(NC8K)5NH2 (SEQ ID NO: 3), +¼ MIC (E. coli AG100/ks; polymer at ¼ of its MIC): >512 mg/L
Antibiotic MIC in presence of C12K(NC8K)7NH2 (SEQ ID NO: 4), +¼ MIC (E. coli AG100/ks; polymer at ¼ of its MIC): >512 mg/L
Antibiotic MIC in presence of C12K(NC8K)5NH2 (SEQ ID NO: 3), +½ MIC (E. coli AG100/ks; polymer at ½ of its MIC): >512-512 μg/ml
Antibiotic MIC in presence of C12K(NC8K)7NH2 (SEQ ID NO: 4), +½ MIC (E. coli AG100/ks; polymer at ½ of its MIC): >512-512 μg/ml
Antibiotic MIC in presence of C12K(NC8K)5NH2 (SEQ ID NO: 3), +⅓ MIC (E. coli AG100/ks; polymer at ⅓ of its MIC): >512 mg/L
Antibiotic MIC in presence of C12K(NC8K)7NH2 (SEQ ID NO: 4), +⅓ MIC (E. coli AG100/ks; polymer at ⅓ of its MIC): >512 mg/L
Antibiotic MIC (P. aeruginosa 8732): 256 mg/L
Antibiotic MIC (P. aeruginosa 8732; P. aeruginosa 8732, +½ MIC (3.12 μM) C16(9-ene)KKNC12KNH2): 256 mg/L
Antibiotic MIC (P. aeruginosa 8732; P. aeruginosa 8732, +⅓ MIC (2.1 μM) C16(9-ene)KKNC12KNH2): 256 mg/L
Antibiotic MIC (P. aeruginosa 8732; P. aeruginosa 8732, no polymer (None), Table 10): 256 mg/L
Antibiotic MIC, None (E. coli AG100; antibiotic alone (Table 20)): 2 mg/L
Antibiotic MIC, None (E. coli AG100; antibiotic alone (Table 21)): 2 mg/L
Antibiotic MIC in presence of C12K(NC8K)5NH2 (SEQ ID NO: 3), +¼ MIC (E. coli AG100; polymer at ¼ of its MIC): 1 to 2 mg/L
Antibiotic MIC in presence of C12K(NC8K)7NH2 (SEQ ID NO: 4), +¼ MIC (E. coli AG100; polymer at ¼ of its MIC): 2 mg/L
Antibiotic MIC in presence of C12K(NC8K)5NH2 (SEQ ID NO: 3), +½ MIC (E. coli AG100; polymer at ½ of its MIC): 0.5 mg/L
Antibiotic MIC in presence of C12K(NC8K)7NH2 (SEQ ID NO: 4), +½ MIC (E. coli AG100; polymer at ½ of its MIC): 0.5 mg/L
Antibiotic MIC in presence of C12K(NC8K)5NH2 (SEQ ID NO: 3), +⅓ MIC (E. coli AG100; polymer at ⅓ of its MIC): 1 mg/L
Antibiotic MIC in presence of C12K(NC8K)7NH2 (SEQ ID NO: 4), +⅓ MIC (E. coli AG100; polymer at ⅓ of its MIC): 1 mg/L
Antibiotic MIC (E. coli 14384): 256 mg/L and 256 to 512 mg/L
Antibiotic MIC (E. coli 14384; E. coli 14384, +½ MIC C12K(NC8K)5NH2): 256 to 512 mg/L
Antibiotic MIC, None (E. coli 14384; E. coli 14384, antibiotic alone (Table 15)): 256 to 512 mg/L
Antibiotic MIC (E. coli 14384; E. coli 14384, no polymer (None), Table 9): 256 to 512 mg/L
Antibiotic MIC (E. coli 14384; E. coli 14384, no polymer (None), Table 14): 256 to 512 mg/L
Antibiotic MIC in presence of C12K(NC8K)7NH2 (SEQ ID NO: 4), +¼ MIC (E. coli 14384; E. coli 14384, polymer at ¼ of its MIC): 256 to 512 mg/L
Antibiotic MIC in presence of C12K(NC8K)7NH2 (SEQ ID NO: 4), +½ MIC (E. coli 14384; E. coli 14384, polymer at ½ of its MIC): 64 to 128 mg/L
Antibiotic MIC in presence of C12K(NC8K)7NH2 (SEQ ID NO: 4), +⅓ MIC (E. coli 14384; E. coli 14384, polymer at ⅓ of its MIC): 256 to 512 mg/L
